# Assay results: US11982667B2, “Platelet aggregation capacity analyzer, analysis method, and analysis system using complex dielectric permittivity” (SONY CORPORATION, priority 2018, dated 2024)
# Key:
# [1] = test system: platelets in whole blood (ADP pathway); experiment: DBCM platelet assay (ADP pathway), activation residual rate AR3 by Method 3; type: cell-based, human; details: citrated whole blood of healthy volunteers spiked with ticagrelor; final blood concentration 400 nM and above; ADP 13 μM; DCS74 feature value
# Procedure: In this experiment, the operating sequence of the dielectric coagulation analyzer experimental machine developed for dielectric blood coagulometry (also simply herein referred to as “DBCM”) was used with some modifications to realize a platelet assay.
# When the measurement is started, 200 μL of citric acid-added blood sample is dispensed into a disposable cartridge into which a reagent(s) has been introduced in advance, and the mixture is mixed and stirred by automatic pipetting with a suction volume of about 200 μL. […]
# Immediately after the completion of stirring, the dielectric permittivity measurement was started, and a change in the blood dielectric permittivity associated with blood coagulation was recorded at a measurement frequency of from 10 kHz to 10 MHz, a measurement time of 60 min, and a measurement time interval of 5 sec. […]
# Meanwhile, in Methods 1 and 2, the response upper limit was obtained when the measurement was conducted without adding any agonist experimentally. […] In this regard, however, the ideal measured value should be obtained when 215 mM lyophilized calcium chloride reagent without any agonist is used and the number of stirring operations is changed to 5 times which is the minimum so as to prevent some of the platelets from being activated and reacted due to stirring-induced shear stress. […]
# [2] = single oral administration of 200 mg; cited from earlier work
structure (smiles),measurement,setting,value
CCCSc1nc(N[C@@H]2C[C@H]2c2ccc(F)c(F)c2)c2nnn([C@@H]3C[C@H](OCCO)[C@@H](O)[C@H]3O)c2n1 [ticagrelor],platelet activation residual rate AR3 (%),[1],≤ 30%
same,maximum plasma concentration,[2],923 ng/mL
